Reference: PubChem BioAssay AID248 (DTP/NCI, 2004)
“And” between values parts separate entries of the source, which are not always exact repeats. Equal values may be shown once. Inconclusive results and toxic doses are left out. No stated cut-off is given here; in the data, active means T/C of 150% or more; inactive means T/C below 125%.

System: L1210 leukemia ip in BDF1 mice, survival T/C
Test: NCI In Vivo Anticancer Drug Screen. Data for tumor model L1210 Leukemia (intraperitoneal) in B6D2F1 (BDF1) mice
Conditions: endpoint: mean survival time, higher = longer survival
Method in brief: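 Ratio derived from survival: compound-dosed mice over vehicle-dosed mice, all bearing a transplantable tumor.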

[1] = dose: 100.0 mg/kg/injection, schedule: Q04DX003 (ip), vehicle: saline
[2] = dose: 75.0 mg/kg/injection, schedule: Q01DX001 (ip), vehicle: saline
[3] = dose: 100.0 mg/kg/injection, schedule: Q04DX003 (ip), vehicle: Klucel (hydroxypropylcellulose) (HPC)
[4] = dose: 200.0 mg/kg/injection, schedule: Q04DX003 (ip), vehicle: Klucel (hydroxypropylcellulose) (HPC)
[5] = dose: 100.0 mg/kg/injection, schedule: Q01DX009 (ip), vehicle: Klucel (hydroxypropylcellulose) (HPC)
[6] = dose: 200.0 mg/kg/injection, schedule: Q01DX009 (ip), vehicle: Klucel (hydroxypropylcellulose) (HPC)
[7] = dose: 100.0 mg/kg/injection, schedule: Q01DX001 (ip), vehicle: other
[8] = dose: 200.0 mg/kg/injection, schedule: Q01DX001 (ip), vehicle: other
[9] = dose: 400.0 mg/kg/injection, schedule: Q01DX001 (ip), vehicle: other
[10] = dose: 100.0 mg/kg/injection, schedule: Q01DX001 (ip), vehicle: saline
[11] = dose: 200.0 mg/kg/injection, schedule: Q01DX001 (ip), vehicle: saline
[12] = dose: 400.0 mg/kg/injection, schedule: Q01DX001 (ip), vehicle: saline
[13] = dose: 200.0 mg/kg/injection, schedule: Q04DX003 (ip), vehicle: saline
[14] = dose: 50.0 mg/kg/injection, schedule: Q01DX001 (ip), vehicle: other

Measured: T/C

C[S+](C)Cc1ccc(C(=O)Oc2ccc([N+](=O)[O-])cc2)cc1
inactive: dose: 25.0 mg/kg/injection, schedule: Q01DX009 (ip), vehicle: saline 100 % of control | dose: 25.0 mg/kg/injection, schedule: Q04DX003 (ip), vehicle: saline 97 % of control | dose: 50.0 mg/kg/injection, schedule: Q01DX009 (ip), vehicle: saline 98 % of control | dose: 50.0 mg/kg/injection, schedule: Q04DX003 (ip), vehicle: saline 100 % of control | dose: 100.0 mg/kg/injection, schedule: Q01DX009 (ip), vehicle: saline 96 % of control and 102 % of control | [1] 100 % of control and 101 % of control | dose: 200.0 mg/kg/injection, schedule: Q01DX009 (ip), vehicle: saline 87 % of control

S=P(=Nc1ccccc1)c1ccccc1 (stereo unspecified)
inactive: dose: 100.0 mg/kg/injection, schedule: Q01DX001 (ip), vehicle: Klucel (hydroxypropylcellulose) (HPC) 91 % of control | dose: 200.0 mg/kg/injection, schedule: Q01DX001 (ip), vehicle: Klucel (hydroxypropylcellulose) (HPC) 89 % of control | dose: 400.0 mg/kg/injection, schedule: Q01DX001 (ip), vehicle: Klucel (hydroxypropylcellulose) (HPC) 88 % of control

C=CCCC1(CC=C)C(=O)NC(=O)NC1=O
inactive: [2] 100 % of control | dose: 150.0 mg/kg/injection, schedule: Q01DX001 (ip), vehicle: saline 104 % of control

O=S(=O)(O)c1ccc2c(N=Nc3ccc(S(=O)(=O)N(CCCl)CCCl)cc3)c(O)c(S(=O)(=O)O)cc2c1
inactive: dose: 50.0 mg/kg/injection, schedule: Q04DX003 (ip), vehicle: Klucel (hydroxypropylcellulose) (HPC) 106 % of control | [3] 90 % of control | [4] 93 % of control

O=C(Nc1ccc(N=C(c2ccccc2)N2CCOCC2)cc1)c1ccc(C(=O)Nc2ccc(N=C(c3ccccc3)N3CCOCC3)cc2)cc1
inactive: dose: 62.0 mg/kg/injection, schedule: Q01DX Z (ip), vehicle: carboxymethylcellulose (CMC) 92 % of control | dose: 125.0 mg/kg/injection, schedule: Q01DX Z (ip), vehicle: carboxymethylcellulose (CMC) 86 % of control | dose: 250.0 mg/kg/injection, schedule: Q01DX Z (ip), vehicle: carboxymethylcellulose (CMC) 91 % of control

CCOP(=O)(CCN(C(C)C)C(C)C)OCC
inactive: dose: 50.0 mg/kg/injection, schedule: Q01DX009 (ip), vehicle: Klucel (hydroxypropylcellulose) (HPC) 100 % of control | [5] 100 % of control | [3] 88 % of control | [6] 93 % of control

Cc1cc2nc(N)[nH]c2cc1C
inactive: dose: 12.5 mg/kg/injection, schedule: Q04DX002 (ip), vehicle: saline + alcohol 96 % of control | dose: 25.0 mg/kg/injection, schedule: Q04DX002 (ip), vehicle: saline + alcohol 96 % of control | dose: 50.0 mg/kg/injection, schedule: Q04DX002 (ip), vehicle: saline + alcohol 100 % of control

CC1(CCOCc2ccccc2)NC(=O)N(CCC#N)C1=O (stereo unspecified)
inactive: dose: 50.0 mg/kg/injection, schedule: Q01DX001 (ip), vehicle: carboxymethylcellulose (CMC) 102 % of control | dose: 100.0 mg/kg/injection, schedule: Q01DX001 (ip), vehicle: carboxymethylcellulose (CMC) 94 % of control | dose: 200.0 mg/kg/injection, schedule: Q01DX001 (ip), vehicle: carboxymethylcellulose (CMC) 94 % of control | dose: 400.0 mg/kg/injection, schedule: Q01DX001 (ip), vehicle: carboxymethylcellulose (CMC) 91 % of control

C1CC2CCC[N]3C2C(C1)[O][Pb]31[O]C2CCCC3CCC[N]1C32 (stereo unspecified)
inactive: dose: 30.0 mg/kg/injection, schedule: Q01DX015 (ip), vehicle: carboxymethylcellulose (CMC) 91 % of control | dose: 60.0 mg/kg/injection, schedule: Q01DX015 (ip), vehicle: carboxymethylcellulose (CMC) 90 % of control | [5] 97 % of control | [3] 95 % of control | [6] 92 % of control | [4] 94 % of control | dose: 400.0 mg/kg/injection, schedule: Q04DX003 (ip), vehicle: Klucel (hydroxypropylcellulose) (HPC) 98 % of control

CCN1/C(=C/C(C)=C/c2[se]c3ccc(C)cc3[n+]2CC)[Se]c2ccc(C)cc21
inactive: dose: 2.0 mg/kg/injection, schedule: Q01DX001 (ip), vehicle: other 109 % of control | dose: 4.0 mg/kg/injection, schedule: Q01DX001 (ip), vehicle: other 114 % of control

O=S(=O)(F)/C=C\c1ccccc1
inactive: dose: 25.0 mg/kg/injection, schedule: Q01DX009 (ip), vehicle: acetone 92 % of control | dose: 100.0 mg/kg/injection, schedule: Q01DX001 (ip), vehicle: acetone 95 % of control | dose: 200.0 mg/kg/injection, schedule: Q01DX001 (ip), vehicle: acetone 104 % of control

CN1C(=O)CCN(CCN2CCC(=O)N(C)C2=S)C1=S
inactive: dose: 100.0 mg/kg/injection, schedule: Q04DX002 (ip), vehicle: Klucel (hydroxypropylcellulose) (HPC) 114 % of control | dose: 200.0 mg/kg/injection, schedule: Q04DX002 (ip), vehicle: Klucel (hydroxypropylcellulose) (HPC) 103 % of control | dose: 400.0 mg/kg/injection, schedule: Q04DX002 (ip), vehicle: Klucel (hydroxypropylcellulose) (HPC) 96 % of control

COC(=O)/C=C(/CC(=O)OC)Nc1ccc(OC)cc1
inactive: [7] 101 % of control | [8] 101 % of control | [9] 108 % of control

O=C(O)CC(C(=O)O)c1ccccc1 (stereo unspecified)
inactive: dose: 100.0 mg/kg/injection, schedule: Q04DX003 (ip), vehicle: saline with Tween-80 88 % of control | dose: 200.0 mg/kg/injection, schedule: Q04DX003 (ip), vehicle: saline with Tween-80 103 % of control | dose: 400.0 mg/kg/injection, schedule: Q04DX003 (ip), vehicle: saline with Tween-80 106 % of control

Cn1c2c(c(=O)n(C)c1=O)NC1(N2)C(=O)Nc2ccccc21 (stereo unspecified)
inactive: [10] 101 % of control | [11] 98 % of control | [12] 101 % of control

CCCCC(CCCC)=NNc1ccc([N+](=O)[O-])cc1[N+](=O)[O-]
inactive: [10] 96 % of control | [11] 102 % of control | [12] 107 % of control

CC(=O)Nc1ccc(S(N)(=O)=O)cn1
inactive: [1] 102 % of control | [13] 89 % of control | dose: 400.0 mg/kg/injection, schedule: Q04DX003 (ip), vehicle: saline 86 % of control

Cc1cc(N(CCCl)CCCl)ccc1C=Nc1cccnc1
inactive: [14] 100 % of control | [7] 100 % of control | [8] 92 % of control | [9] 94 % of control

C[n+]1ccc(/C=C\c2ccc3c(c2)OCO3)cc1
inactive: [2] 100 % of control

CN=C1N[N+]2=C(C)CCCC2S1 (stereo unspecified)
inactive: [1] 95 % of control | [13] 95 % of control

CCCCCCNC(=O)NC
inactive: [5] 97 % of control | [6] 103 % of control

C1=Nc2ccccc2/C1=C/c1cccc2ccccc12
inactive: dose: 100.0 mg/kg/injection, schedule: Q04DX002 (ip), vehicle: saline with Tween-80 98 % of control | dose: 200.0 mg/kg/injection, schedule: Q04DX002 (ip), vehicle: saline with Tween-80 101 % of control

C1C[N+]2(CCO1)CC[N+]1(CCOCC1)CC2
inactive: dose: 100.0 mg/kg/injection, schedule: Q04DX002 (ip), vehicle: saline 104 % of control | dose: 200.0 mg/kg/injection, schedule: Q04DX002 (ip), vehicle: saline 96 % of control | dose: 400.0 mg/kg/injection, schedule: Q04DX002 (ip), vehicle: saline 100 % of control

COC(=O)c1[nH]cnc1/N=N/Nc1ccc(Cl)cc1
inactive: [14] 103 % of control | [7] 105 % of control | [8] 105 % of control | [9] 94 % of control

CC12CCC(=O)C=C1CCC1C2C(=O)CC2(C)C1CCC2(O)C(=O)COC(=O)c1cc([N+](=O)[O-])c(N2CC2)c([N+](=O)[O-])c1 (stereo unspecified)
inactive: dose: 50.0 mg/kg/injection, schedule: Q01DX001 (sc), vehicle: steriod suspending solution 103 % of control | dose: 60.0 mg/kg/injection, schedule: Q01DX015 (ip), vehicle: saline 96 % of control | dose: 90.0 mg/kg/injection, schedule: Q01DX015 (ip), vehicle: saline 100 % of control | dose: 100.0 mg/kg/injection, schedule: Q01DX001 (sc), vehicle: steriod suspending solution 95 % of control | dose: 135.0 mg/kg/injection, schedule: Q01DX015 (ip), vehicle: saline 102 % of control | dose: 200.0 mg/kg/injection, schedule: Q01DX001 (sc), vehicle: steriod suspending solution 101 % of control | dose: 200.0 mg/kg/injection, schedule: Q01DX015 (ip), vehicle: saline 96 % of control | dose: 400.0 mg/kg/injection, schedule: Q01DX001 (sc), vehicle: steriod suspending solution 103 % of control

Nc1ncnc(N)c1[N+](=O)[O-]
inactive: dose: 125.0 mg/kg/injection, schedule: Q01DX Z (ip), vehicle: methylcellulose (MC) 88 % of control
